{"source": "patent US6500849B1", "about": "“1-alkyl-, 1-alkenyl-, and 1-alkynylaryl-2-amino 1,3-propanediols and related compounds” (Aventis Pharmaceuticals Inc., priority 1990, dated 2002)", "key": {"E. coli": {"system": "E. coli", "experiment": "Aerobic antibacterial assay (agar dilution, Mueller-Hinton agar)", "assay_type": "cell-based", "conditions": "Escherichia coli, 24 h, read-out: Antibacterial activity (MIC, mg/l)"}, "Bact. fragilis": {"system": "Bact. fragilis", "experiment": "Anerobic antibacterial assay (agar dilution, Wilkins-Chalgren agar)", "assay_type": "cell-based", "conditions": "Bacteroides fragilis, anaerobic, 48 hours at 37° C."}, "Bact. ovatus": {"system": "Bact. ovatus", "experiment": "Anerobic antibacterial assay (agar dilution, Wilkins-Chalgren agar)", "assay_type": "cell-based", "conditions": "Bacteroides ovatus; Bact. ovatus 103; anaerobic; 48 hours at 37° C.; read-out: Antibacterial activity (MIC, mg/l)"}, "Bact. vulgatus": {"system": "Bact. vulgatus", "experiment": "Anerobic antibacterial assay (agar dilution, Wilkins-Chalgren agar)", "assay_type": "cell-based", "conditions": "Phocaeicola vulgatus, 48 h, read-out: Antibacterial activity (MIC, mg/l)"}, "Bact. thetaiotaom.": {"system": "Bact. thetaiotaom.", "experiment": "Anerobic antibacterial assay (agar dilution, Wilkins-Chalgren agar)", "assay_type": "cell-based", "conditions": "anaerobic, 48 hours at 37° C."}, "Bact. distasonis": {"system": "Bact. distasonis", "experiment": "Anerobic antibacterial assay (agar dilution, Wilkins-Chalgren agar)", "assay_type": "cell-based", "conditions": "Parabacteroides distasonis, 48 h, read-out: Antibacterial activity (MIC, mg/l)"}, "Fusobact. varium": {"system": "Fusobact. varium", "experiment": "Anerobic antibacterial assay (agar dilution, Wilkins-Chalgren agar)", "assay_type": "cell-based", "conditions": "48 h, read-out: Antibacterial activity (MIC, mg/l)"}, "Spaeroph. freundii": {"system": "Spaeroph. freundii", "experiment": "Anerobic antibacterial assay (agar dilution, Wilkins-Chalgren agar)", "assay_type": "cell-based", "conditions": "48 h, read-out: Antibacterial activity (MIC, mg/l)"}, "Peptostr. anaerobius": {"system": "Peptostr. anaerobius", "experiment": "Anerobic antibacterial assay (agar dilution, Wilkins-Chalgren agar)", "assay_type": "cell-based", "conditions": "48 h, read-out: Antibacterial activity (MIC, mg/l)"}, "Propionibact. acnes": {"system": "Propionibact. acnes", "experiment": "Anerobic antibacterial assay (agar dilution, Wilkins-Chalgren agar)", "assay_type": "cell-based", "conditions": "48 h, read-out: Antibacterial activity (MIC, mg/l)"}, "Clost. tetani": {"system": "Clost. tetani", "experiment": "Anerobic antibacterial assay (agar dilution, Wilkins-Chalgren agar)", "assay_type": "cell-based", "conditions": "Clostridium tetani, 48 h, read-out: Antibacterial activity (MIC, mg/l)"}, "Clost. perfringens": {"system": "Clost. perfringens", "experiment": "microbe, parasite or virus in culture", "assay_type": "cell-based", "conditions": "Clostridium perfringens, 48 h, read-out: Antibacterial activity (MIC, mg/l)"}, "Aspergillus Niger": {"system": "Aspergillus Niger", "experiment": "Antifungal assay (microtitration technique)", "assay_type": "cell-based", "conditions": "120 h; Aspergillus Niger strain 500/284; 5 days at 30° C.", "procedure": "(§1) The microtiter plate is prepared as follows: The wells are each filled (2 rows/strain) with 50 μl neopeptone-dextrose broth (12-channel pipette). In addition, one row/strain is coated with 50 μl yeast-nitrogen base/well for yeasts and moulds. […] All wells are then inoculated with 150 μl standardized organism suspension (yeasts: 1×10^3 organisms/ml suspension; cutaneous fungi and moulds: 1.6×10^5 organisms/ml suspension); the total volume is 200 μl per well. There is also a growth control (inoculated, not medicated), a solvent control (inoculated, not medicated, containing solvent as in medicated rows) and a negative control (not inoculated, not medicated). Incubation for 5 days at 30° C. is followed by photometric evaluation. The obtained measurements are checked visually (macroscopically and microscopically) and corrected where necessary. Criteria for Evaluation of the Antimycotic Effect a. Photometric measurements (matrix method) b. Growth, macroscopic evaluation c. Growth, microscopic evaluation (inversion light microscope, magn. 64×)."}, "Candida Albicans": {"system": "Candida Albicans", "experiment": "Antifungal assay (microtitration technique)", "assay_type": "cell-based", "conditions": "120 h; Candida Albicans strain 200/175; 5 days at 30° C.", "procedure": "as §1"}, "Microsporum Canis": {"system": "Microsporum Canis", "experiment": "Antifungal assay (microtitration technique)", "assay_type": "cell-based", "conditions": "120 h; Microsporum Canis strain 150/353; 5 days at 30° C.", "procedure": "as §1"}, "[1]": {"system": "Trichophyton Mentagrophytes", "experiment": "Antifungal assay (microtitration technique)", "assay_type": "cell-based", "conditions": "120 h; Trichophyton Mentagrophytes strain 100/25; 5 days at 30° C.", "procedure": "as §1"}, "Trichophyton Rubrum": {"system": "Trichophyton Rubrum", "experiment": "Antifungal assay (microtitration technique)", "assay_type": "cell-based", "conditions": "120 h; Trichophyton Rubrum strain 101/85; 5 days at 30° C.", "procedure": "as §1"}, "Trichophyton Vaginalis": {"system": "Trichophyton Vaginalis", "experiment": "Antifungal assay (microtitration technique)", "assay_type": "cell-based", "conditions": "120 h; Trichophyton Vaginalis strain 111/216; 5 days at 30° C.", "procedure": "as §1"}, "Staph. aureus": {"system": "Staph. aureus", "experiment": "Aerobic antibacterial assay (agar dilution, Mueller-Hinton agar)", "conditions": "Staphylococcus aureus, 24 h"}, "Strept. pyogenes": {"system": "Strept. pyogenes", "experiment": "Aerobic antibacterial assay (agar dilution, Mueller-Hinton agar)", "conditions": "Streptococcus pyogenes, 24 h, read-out: Antibacterial activity (MIC, mg/l)"}, "Strept. faecium": {"system": "Strept. faecium", "experiment": "Aerobic antibacterial assay (agar dilution, Mueller-Hinton agar)", "conditions": "Enterococcus faecium, 24 h, read-out: Antibacterial activity (MIC, mg/l)"}, "S. typhimurium": {"system": "S. typhimurium", "experiment": "Aerobic antibacterial assay (agar dilution, Mueller-Hinton agar)", "conditions": "Salmonella enterica, TYPHIMURIUM, 24 h, read-out: Antibacterial activity (MIC, mg/l)"}, "Klebsiella spp.": {"system": "Klebsiella spp.", "experiment": "Aerobic antibacterial assay (agar dilution, Mueller-Hinton agar)", "conditions": "Klebsiella, 24 h, read-out: Antibacterial activity (MIC, mg/l)"}, "E. cloacae": {"system": "E. cloacae", "experiment": "Aerobic antibacterial assay (agar dilution, Mueller-Hinton agar)", "conditions": "Enterobacter cloacae, 24 h, read-out: Antibacterial activity (MIC, mg/l)"}}, "note": "Where two headings read alike, the source gives them in different places."}
{"smiles": "CCCCCCCCCCc1cccc(C(O)C(N)CO)n1", "note": "(stereo not drawn) [erythro-2-Amino-1-(6-Decyl-2-pyridinyl)-1,3-dihydroxypropane]", "values": [{"measurement": "MIC", "setting": "E. coli; E. coli 1507E, 24 hours at 37° C.", "result": 12.5, "unit": "mg/L"}, {"measurement": "MIC", "setting": "E. coli; E. coli DC0, 24 hours at 37° C.", "result": 12.5, "unit": "mg/L"}, {"measurement": "MIC", "setting": "E. coli; E. coli DC2, 24 hours at 37° C.", "result": 6.25, "unit": "mg/L"}, {"measurement": "MIC", "setting": "E. coli; E. coli O 78, 24 hours at 37° C.", "result": 12.5, "unit": "mg/L"}, {"measurement": "MIC", "setting": "E. coli; E. coli TEM, 24 hours at 37° C.", "result": 25, "unit": "mg/L"}, {"measurement": "MIC", "setting": "Bact. fragilis; 48 h, read-out: Antibacterial activity (MIC, mg/l), Bact. fragilis 312", "result": 12.5, "unit": "mg/L"}, {"measurement": "MIC", "setting": "Bact. fragilis; 48 h, read-out: Antibacterial activity (MIC, mg/l), Bact. fragilis 1313", "result": 12.5, "unit": "mg/L"}, {"measurement": "MIC", "setting": "Bact. fragilis; 48 h, read-out: Antibacterial activity (MIC, mg/l), Bact. fragilis 17390", "result": 12.5, "unit": "mg/L"}, {"measurement": "MIC", "setting": "Bact. fragilis; 48 h, read-out: Antibacterial activity (MIC, mg/l), Bact. fragilis 18125", "result": 12.5, "unit": "mg/L"}, {"measurement": "MIC", "setting": "Bact. fragilis; 48 h, read-out: Antibacterial activity (MIC, mg/l), Bact. fragilis 19016", "result": 12.5, "unit": "mg/L"}, {"measurement": "MIC", "setting": "Bact. fragilis; Bact. fragilis 960, read-out: Antibacterial activity (MIC, mg/l)", "result": 6.25, "unit": "mg/L"}, {"measurement": "MIC", "setting": "Bact. ovatus", "result": 6.25, "unit": "mg/L"}, {"measurement": "MIC", "setting": "Bact. vulgatus", "result": 12.5, "unit": "mg/L"}, {"measurement": "MIC", "setting": "Bact. thetaiotaom.; 48 h, read-out: Antibacterial activity (MIC, mg/l), Bact. thetaiotaom. 1428", "result": 12.5, "unit": "mg/L"}, {"measurement": "MIC", "setting": "Bact. thetaiotaom.; 48 h, read-out: Antibacterial activity (MIC, mg/l), Bact. thetaiotaom. 1445", "result": 12.5, "unit": "mg/L"}, {"measurement": "MIC", "setting": "Bact. thetaiotaom.; Bact. thetaiotaom. 123, read-out: Antibacterial activity (MIC, mg/l)", "result": 6.26, "unit": "mg/L"}, {"measurement": "MIC", "setting": "Bact. distasonis", "result": 12.5, "unit": "mg/L"}, {"measurement": "MIC", "setting": "Fusobact. varium", "result": 12.5, "unit": "mg/L"}, {"measurement": "MIC", "setting": "Spaeroph. freundii", "result": 12.5, "unit": "mg/L"}, {"measurement": "MIC", "setting": "Peptostr. anaerobius", "result": 12.5, "unit": "mg/L"}, {"measurement": "MIC", "setting": "Propionibact. acnes", "result": 12.5, "unit": "mg/L"}, {"measurement": "MIC", "setting": "Clost. tetani", "result": 12.5, "unit": "mg/L"}, {"measurement": "MIC", "setting": "Clost. perfringens", "result": 12.5, "unit": "mg/L"}, {"measurement": "MIC", "setting": "Aspergillus Niger", "result": 31.2, "unit": "µg/mL"}, {"measurement": "MIC", "setting": "Candida Albicans", "result": 31.2, "unit": "µg/mL"}, {"measurement": "MIC", "setting": "Microsporum Canis", "result": 31.2, "unit": "µg/mL"}, {"measurement": "MIC", "setting": "[1]", "result": 31.2, "unit": "µg/mL"}, {"measurement": "MIC", "setting": "Trichophyton Rubrum", "result": 31.2, "unit": "µg/mL"}, {"measurement": "MIC", "setting": "Trichophyton Vaginalis", "result": 15.6, "unit": "µg/mL"}, {"measurement": "MIC", "setting": "Staph. aureus; read-out: Antibacterial activity (MIC, mg/l)", "result": 6.25, "unit": "mg/L"}, {"measurement": "MIC", "setting": "Staph. aureus; read-out: Antibacterial activity (MIC, mg/l), Staph. aureus 285, aerobic, 24 hours at 37° C.", "result": 12.5, "unit": "mg/L"}, {"measurement": "MIC", "setting": "Staph. aureus; read-out: Antibacterial activity (MIC, mg/l), Staph. aureus SG511, aerobic, 24 hours at 37° C.", "result": 12.5, "unit": "mg/L"}, {"measurement": "MIC", "setting": "Strept. pyogenes", "result": 6.25, "unit": "mg/L"}, {"measurement": "MIC", "setting": "Strept. faecium", "result": 12.5, "unit": "mg/L"}, {"measurement": "MIC", "setting": "S. typhimurium", "result": 12.5, "unit": "mg/L"}, {"measurement": "MIC", "setting": "Klebsiella spp.", "result": 12.5, "unit": "mg/L"}, {"measurement": "MIC", "setting": "E. cloacae", "result": 12.5, "unit": "mg/L"}]}
